Measurements reported in patent US20040142007A1, “Cosmetic preparations containing an extract of germinating plants” (priority 2001, published 2004).

System: B16 melanocytes
Experiment: Inhibition of melanin synthesis in B16 melanocytes
Type: cell-based
Settings: 0.5% w/v; 3 days; control = 100%
Method: To carry out the test, melanocytes (B16 cell line) were incubated for 3 days at 37° C./5% CO2 in a standard growth medium for cell cultures containing foetal calf serum (FCS). The growth medium was then replaced by a standard medium with which the substances to be tested were adjusted to different concentrations. After incubation for 3 days, the number of living cells was determined through the cell protein content (Bradford's method) and the content of synthesized melanin—recorded in the cell homogenizate at an optical density of 475 nm. The results are expressed in % against a control of pure cell culture medium.

Question: Which results are given for `OC[C@H]1O[C@@H](Oc2ccc(O)cc2)[C@H](O)[C@@H](O)[C@@H]1O` [Arbutin]?
Answer: Cell protein content: 81%; Melanin content: 35%
